{"source": "paper PMC6687188", "about": "“Novel lactate dehydrogenase inhibitors with in vivo efficacy against Cryptosporidium parvum” (PLoS Pathogens, 2019)", "key": {"[1]": {"biological_target": "T1, recombinant CpLDH protein (Cryptosporidium parvum, UniProt Q9GT92, F198L/K295E/R251K)", "settings": "cited from earlier work"}, "[2]": {"biological_target": "T1, recombinant CpLDH protein", "settings": "for Km: pyruvate/NADH: reduction reaction pH 7.5, lactate/NAD+: oxidation reaction pH 9.2, 25°C; for Kcat / Vmax: pyruvate/NADH: reduction reaction, lactate/NAD+: oxidation reaction", "procedure": "The coding sequence of CpLDH was cloned from cDNA prepared from the AUCP-1 isolate of C. parvum, and the His-tagged CpLDH recombinant protein expressed in Escherichia coli, and purified in native form essentially as previously described. Briefly, cDNA was prepared from total RNA extracted from the AUCP-1 isolate of C. parvum, and the coding sequence of CpLDH (Genebank accession number AF274310.1) was PCR-amplified from the cDNA using the primer pair 5’-[…]-3’ (Forward, with the XhoI restriction site italicized and start codon in bold) and 5’-[…]-3’ (Reverse, with the BamHI site italicized and stop codon in bold). The PCR amplicon was cloned at the XhoI/BamHI site of the pET15b expression vector in-frame with the hexahistidine (His-tag) at the N-terminal and sequenced to confirm identity. The recombinant expression vector was transformed into protein expression E. coli BL21-CodonPlus-DE3-RIL (Stratagene). Transformed E. coli was cultured at 37°C in Luria broth medium (supplemented with 100 μg/ml ampicillin and 34 μg/ml chloramphenicol) to an A600 of 0.8 followed by addition of 1 mM isopropyl-β-D-thiogalactopyranoside to induce protein expression. The expression E. coli was harvested and lysed under native conditions by sonicating in lysis buffer (50 mM NaH2PO4, 300 mM NaCl, 10 mM Imidazole, pH 8.0) containing a 1x EDTA-free protease inhibitor cocktail, 600 units benzonase and 30 kU lysozyme (EMD Millipore). The lysate was clarified by centrifugation and the His-tagged recombinant protein purified under native conditions by nickel-affinity chromatography according to the manufacturer's instructions (Novagen). The wash buffer used contained 50 mM NaH2PO4, 300 mM NaCl and 20 mM Imidazole, pH 8.0, while the elution buffer was composed of 50 mM NaH2PO4, 300 mM NaCl, 250 mM Imidazole, pH 8.0. The eluate was dialyzed using a buffer containing 5 mM Hepes–KOH (pH 7.8) and 0.5 mM DTT. The purity of the recombinant protein was determined by SDS/PAGE, and the concentration measured using a Qubit 3.0 fluorometer (Life technologies). […] On the other hand, the catalytic activity of CpLDH recombinant protein for the oxidation of lactate to pyruvate was determined by measuring the change in optical density of a 100 μl reaction mixture containing 100 mM lactate, 1 mM NAD^+, 100 mM Tris, pH 9.2, with varying concentrations of CpLDH recombinant protein at 25°C. […] In all assays, reaction mixtures without recombinant CpLDH protein were included as negative controls. All assays were performed in triplicate and repeated at least thrice. The change in optical density was measured every 15 seconds for a total of 2 minutes using a Spectra Max 384 Plus plate reader (Molecular Devices) at a wave length of 340 nm."}, "[3]": {"biological_target": "T1, recombinant CpLDH protein", "settings": "value in parentheses; ref Zhang et al., 2015 [11]; cited from earlier work"}, "[4]": {"assay": "Compound cytotoxicity assay (WST-1 cell proliferation reagent)", "settings": "human", "procedure": "A colorimetric assay using the cell proliferation reagent WST-1 (Roche, USA) for the quantification of cell viability was performed. […] When the cells were confluent, the old medium was replaced with fresh medium with or without varying concentrations of chemical compound. After 24 h of culture, 10 μl of the cell proliferation reagent WST-1, (for quantification of cell viability) was added to each well, mixed and the plates incubated for 1 h at 37 C with 5% CO2 in the dark. […] Three independent assays were performed and the dose–response curves of the means of triplicate assays were generated using GraphPad PRISM software to derive the half maximal inhibitory concentration (IC50) of compounds in HCT-8 cells."}}, "note": "Like-named read-outs stand apart in the source and are kept apart here.", "data": [{"smiles": "CCCc1c(O)c(O)c(C(=O)O)c2cc(Cc3ccccc3)c(C)cc12", "note": "[FX11]", "values": [{"measurement": "enzymatic activity of CpLDH (in words)", "setting": "[1]", "value": "able to inhibit"}]}, {"smiles": "CC(O)C(=O)O", "note": "(centres unmarked) [Lactate, lactate]", "values": [{"measurement": "Km", "setting": "[2]", "value": 39600, "unit": "µM"}, {"measurement": "Kcat", "setting": "[2]", "value": 0.07, "unit": "s⁻¹"}, {"measurement": "Vmax", "setting": "[2]", "value": 0.04, "unit": "nmol⁻¹ µg⁻¹ min⁻¹"}, {"measurement": "Kcat", "setting": "[3]", "value": 0.66, "unit": "s⁻¹"}, {"measurement": "Km", "setting": "[3]", "value": 10800, "unit": "µM"}, {"measurement": "Vmax", "setting": "[3]", "value": 0.53, "unit": "nmol⁻¹ µg⁻¹ min⁻¹"}]}, {"smiles": "NC(=O)C1=CN([C@@H]2O[C@H](COP(=O)(O)OP(=O)(O)OC[C@H]3O[C@@H](n4cnc5c(N)ncnc54)[C@H](O)[C@@H]3O)[C@@H](O)[C@H]2O)C=CC1", "note": "[NADH]", "values": [{"measurement": "Km", "setting": "[2]", "value": 734, "unit": "µM"}, {"measurement": "Vmax", "setting": "[2]", "value": 6.29, "unit": "nmol⁻¹ µg⁻¹ min⁻¹"}]}, {"smiles": "NC(=O)c1ccc[n+]([C@@H]2O[C@H](COP(=O)([O-])OP(=O)(O)OC[C@H]3O[C@@H](n4cnc5c(N)ncnc54)[C@H](O)[C@@H]3O)[C@@H](O)[C@H]2O)c1", "note": "[NAD^+]", "values": [{"measurement": "Km", "setting": "[2]", "value": 56, "unit": "µM"}, {"measurement": "Kcat", "setting": "[2]", "value": 0.11, "unit": "s⁻¹"}, {"measurement": "Vmax", "setting": "[2]", "value": 0.07, "unit": "nmol⁻¹ µg⁻¹ min⁻¹"}, {"measurement": "Kcat", "setting": "[3]", "value": 0.70, "unit": "s⁻¹"}, {"measurement": "Km", "setting": "[3]", "value": 62, "unit": "µM"}, {"measurement": "Vmax", "setting": "[3]", "value": 0.56, "unit": "nmol⁻¹ µg⁻¹ min⁻¹"}]}, {"smiles": "CN(C)C(=S)SSC(=S)N(C)C", "note": "[NSC1771]", "values": [{"measurement": "IC50 at 24 h", "setting": "[4]", "value": 110, "unit": "µM"}]}, {"smiles": "Cc1cc2c(C(C)C)c(O)c(O)c(C=O)c2c(O)c1-c1c(C)cc2c(C(C)C)c(O)c(O)c(C=O)c2c1O", "note": "[NSC56817]", "values": [{"measurement": "IC50 at 24 h", "setting": "[4]", "value": 64.2, "unit": "µM"}]}, {"smiles": "CC(=O)C(=O)O", "note": "[Pyruvate, pyruvate]", "values": [{"measurement": "Km for pyruvate lower than that for lactate", "setting": "[2]", "value": "at least 54 fold"}, {"measurement": "Vmax for pyruvate higher than that for lactate", "setting": "[2]", "value": 123, "unit": "fold"}, {"measurement": "Km", "setting": "[2]", "value": 731, "unit": "µM"}, {"measurement": "Kcat", "setting": "[2]", "value": 8.42, "unit": "s⁻¹"}, {"measurement": "Vmax", "setting": "[2]", "value": 5.04, "unit": "nmol⁻¹ µg⁻¹ min⁻¹"}, {"measurement": "Kcat", "setting": "[3]", "value": 16.10, "unit": "s⁻¹"}, {"measurement": "Km", "setting": "[3]", "value": 427, "unit": "µM"}, {"measurement": "Vmax", "setting": "[3]", "value": 12.89, "unit": "nmol⁻¹ µg⁻¹ min⁻¹"}]}, {"smiles": "Cc1cc2c(C(C)C)c(O)c(O)c(C=O)c2c(O)c1-c1c(C)cc2c(C(C)C)c(O)c(O)c(C=O)c2c1O", "note": "[gossypol]", "values": [{"measurement": "enzymatic activity of CpLDH (in words)", "setting": "[1]", "value": "able to inhibit"}]}]}
